Experimental data from publication PMC7618104, “The GLP-1 analogue, exendin-4, improves bone material properties and strength through a central relay in ovariectomized mice” (American journal of physiology. Endocrinology and metabolism, 2025).

Tests used:
[1] = system: ovariectomized BALB/c mice; assay: microCT cortical bone microstructure, midshaft femur; assay type: in vivo, mouse (BALB/cJRj, female); conditions: 28 days, OVX, n=8
Procedure: (§1) Eight animals were randomly assigned to each group.
All animals received intraperitoneal administration of calcein green (10 mg/kg) 10 days and 2 days before sacrifice. Animals were housed in social groups and maintained in a 12 h:12 h light/dark cycle. They had free access to water and food. At necropsy, blood was collected by intracardiac aspiration into EDTA-treated tubes. Blood samples were centrifuged at 13,000 g for 15 min, aliquoted and stored at -80°C until plasma levels of exendin-4 (#EK-070-94, Phoenix pharmaceuticals, Burlingame, CA) and calcitonin (NBP3-06734, Bio-Techne Ltd, Abingdon, UK) were measured according to the manufacturer’s protocol. Plasma levels of the bone remodeling markers C-terminal telopeptide of collagen type I (CTx-I – RatLaps, Immunodiagnostic Systems Ltd, Boldon, UK) and N-terminal propeptide of type I collagen (P1NP - Rat/mouse P1NP, Immunodiagnostic Systems Ltd) were measured according to the manufacturers’ recommendation. Right femurs were wrapped in saline-soaked gauze and frozen at -20°C until use. […]
MicroCT analyses were performed at the proximal metaphysis of the right tibia and at the mid-diaphysis of the right femur with a Bruker 1272 microtomograph operated at 70 kV, 140 μA, 1000 ms integration time and imaging in ethanol 70. […] The region analyzed (0.5 mm) was centered at the midpoint between the third trochanter and the distal growth plate. […]

[2] = system: ovariectomized BALB/c mice; assay: 3-point bending of femur (whole-bone strength), ovariectomy-induced bone fragility model; assay type: in vivo, mouse (BALB/cJRj, female); conditions: 28 days, n=8
Procedure: as §1
(§2) All animals received intraperitoneal administration of calcein green (10 mg/kg) 10 days and 2 days before sacrifice. Animals were housed in social groups and maintained in a 12 h:12 h light/dark cycle. They had free access to water and food. At necropsy, blood was collected by intracardiac aspiration into EDTA-treated tubes. Blood samples were centrifuged at 13,000 g for 15 min, aliquoted and stored at -80°C until plasma levels of exendin-4 (#EK-070-94, Phoenix pharmaceuticals, Burlingame, CA) and calcitonin (NBP3-06734, Bio-Techne Ltd, Abingdon, UK) were measured according to the manufacturer’s protocol. Plasma levels of the bone remodeling markers C-terminal telopeptide of collagen type I (CTx-I – RatLaps, Immunodiagnostic Systems Ltd, Boldon, UK) and N-terminal propeptide of type I collagen (P1NP - Rat/mouse P1NP, Immunodiagnostic Systems Ltd) were measured according to the manufacturers’ recommendation. Right femurs were wrapped in saline-soaked gauze and frozen at -20°C until use. Right tibiae were fixed in ethanol-based fixative and stored at 4°C until use. No specific inclusion or exclusion criteria were applied for animal selection. […] Additionally, correct implantation of the cerebral perfusion cannulas for icv-administered animals was verified at necropsy. All animals meeting these criteria were included in the study.
The whole-bone strength of right femurs was assessed by 3-point bending in accordance with published guidelines ([34]). Three-point bending strength was measured with a constant span length of 10 mm. Bones were tested in the antero-posterior axis with the posterior surface facing upward, centered on the support and the pressing force was applied vertically to the midshaft of the bone. Each bone was tested fully hydrated and at room temperature with a loading speed of 2 mm.min^-1 until failure with a 500 N load cell on an Instron 5942 device (Instron, Elancourt, France) and the load-displacement curve was recorded at a 100 Hz rate by the Bluehill 3 software (Instron). Ultimate load, ultimate displacement, stiffness and work to fracture were calculated as indicated in ([34]). The yield point was determined as the point at which a regression line that represents a 10% loss in stiffness crosses the load-displacement curve. Post-yield displacement was computed as the displacement between yielding and fracture. Peak bending moment was calculated as one-half the ultimate load multiplied by one-half the span length ([34]). The peak bending moment is related to bone tissue material properties and bone midshaft geometry by the following equation: M=σb×IML/cAP

[3] = system: splenocytes isolated from BALB/c ovariectomized (OVX) mice; assay: Osteoclast differentiation assay (TRAP staining); assay type: cell-based, mouse (BALB/cJRj); conditions: 10 nM Exendin-4, M-CSF + RANKL, 7 days
Procedure: To investigate the potential effect of Exendin-4 (Ex-4) on osteoclast differentiation, we used splenocytes isolated from BALB/c ovariectomized (OVX) mice (BALB/cJRj; Janvier Labs, Saint-Berthevin, France). Mice were ovariectomized at 12 weeks of age, and splenocytes were isolated 4 weeks post-ovariectomy. The splenocytes were cultured in osteoclast differentiation medium (α-MEM supplemented with 10% FBS, 100 U/mL penicillin/streptomycin, 50 ng/mL macrophage colony-stimulating factor (M-CSF, Bio-Techne, Noyal-Chatillon-sur-Seiche, France), and 30 ng/mL receptor activator of NF-κB ligand (RANKL, Bio-Techne) in the presence or absence of 10 nM Exendin-4. D-Ala2-GIP at a concentration of 10 nM was used as positive controls, as previously reported ([39]). Cells were cultured for 7 days, with media changes every 2 days. Osteoclast differentiation was evaluated by TRAP staining, as previously described ([39]).
Supplementary Figure S4 – Effect of Exendin-4 on osteoclast differentiation in vitro. Splenocytes were isolated from BALB/c ovariectomized (OVX) mice at 12 weeks of age, 4 weeks post-ovariectomy, and cultured in osteoclast differentiation medium containing M-CSF and RANKL, with or without 10 nM Exendin-4. Cells were cultured for 7 days, and osteoclast differentiation was assessed by TRAP staining.
D-Ala2-GIP was used at 10 nM and served as positive controls. […]

[4] = system: ovariectomized BALB/c mice; assay: Plasma levels of calcitonin and bone remodeling markers (CTx-I, P1NP); assay type: in vivo, mouse (BALB/cJRj, female); conditions: 28 days, n=8; for Calcitonin (plasma) / P1NP (plasma) / CTx-I (plasma): mean ± SD
Procedure: as §1, §2

[5] = system: animal models of bone fragility; conditions: subcutaneous, OVX model; cited from earlier work
From the text: These observations formed the basis for investigating the potential utility of a GLP-1r agonist for the management of bone fragility. Ex-4 has already been administered subcutaneously in preclinical models of bone fragility, including the OVX model used in the present study. Previous studies have reported positive effects of Ex-4 that increased bone mineral density, trabecular microstructure and circulating calcitonin leve ...

[6] = icv Ex-4 70 pmol/day, vs OVX+vehicle, p<0.001

With exendin-4 [Ex-4] the cortical bone microstructure ([1]; icv Ex-4 70 pmol/day) was “unable to demonstrate significant changes in cortical bone microstructure”, the cortical bone microstructure ([1]; s.c. Ex-4 ~700 pmol/day) was “did not alter cortical bone microstructure” and the increase in energy-to-fracture [2, 6] was 8%. The “increase in post-yield displacement” value [2, 6] was 8%, the “increase in ultimate load” value ([2]; icv Ex-4 70 pmol/day, vs OVX+vehicle, p=0.010) was 7% and the ultimate load ([2]; s.c. Ex-4 ~700 pmol/day, OVX, p=0.817) was “did not prevent the impact of ovariectomy on ultimate load”. The stiffness ([2]; s.c. Ex-4 ~700 pmol/day, OVX, p=0.984) was “did not prevent the impact of ovariectomy”, the increase in energy-to-fracture ([2]; s.c. Ex-4 ~700 pmol/day, vs OVX+vehicle, p=0.020) was 24% and the “increase in post-yield displacement” value ([2]; s.c. Ex-4 ~700 pmol/day, vs OVX+vehicle, p=0.025) was 18%. The osteoclast differentiation [3] was “No significant differences in osteoclast differentiation”, the “Calcitonin (plasma)” value ([4]; OVX + Ex-4, icv 70 pmol/day) was 47 ± 10 pg/mL and the “P1NP (plasma)” value ([4]; OVX + Ex-4, icv 70 pmol/day) was 28.0 ± 2.2 ng/mL. For the same substance, the “CTx-I (plasma)” value ([4]; OVX + Ex-4, icv 70 pmol/day, p<0.01 vs. OVX+Vehicle) was 8.5 ± 1.7 ng/mL, the “P1NP (plasma)” value ([4]; OVX + Ex-4, s.c. ~700 pmol/day) was 25.2 ± 4.0 ng/mL and the “Calcitonin (plasma)” value ([4]; OVX + Ex-4, s.c. ~700 pmol/day, p<0.001 vs. OVX+Vehicle) was 111 ± 15 pg/mL. For the same substance, the “CTx-I (plasma)” value ([4]; OVX + Ex-4, s.c. ~700 pmol/day, p<0.05 vs. OVX+Vehicle) was 11.7 ± 2.0 ng/mL, the circulating calcitonin levels ([4]; icv Ex-4 70 pmol/day, OVX) was “no effects on circulating calcitonin levels” and the “change in plasma CTX-I” value ([4]; icv Ex-4 70 pmol/day, vs OVX+vehicle, p=0.005) was -38%. The “increase in plasma circulating calcitonin” value ([4]; s.c. Ex-4 ~700 pmol/day, vs OVX+vehicle, p<0.001) was 152%, the “change in plasma CTX-I” value ([4]; s.c. Ex-4 ~700 pmol/day, vs OVX+vehicle, p=0.012) was -20% and the “bone mineral density, trabecular microstructure, calcitonin, osteoclast parameters, bone strength” value [5] was “increased bone mineral density, trabecular microstructure and circulating calcitonin levels and reduced osteoclast parameters, resulting in greater bone strength”.
